In patent US20040029886A1, “Dihalopropene compounds, processes for their preparation, compositions comprising them and their use as pesticides” (priority 2001, published 2004):

Key:
Assay type in all cases: in vivo
Set-up in all cases: key: compounds are considered to be active when, at a concentration of 500 ppm or less, their action on the harmful organisms is 50% or more
[1] = system: eggs of the corn rootworm (Diabrotica undecimpunctata); assay: Example E: eggs of corn rootworm, Petri dish with maize corn; settings: 500 ppm or less, after 6 days
Protocol: (§1) In Examples A to L below, compounds are considered to be active when, at a concentration of 500 ppm or less, their action on the harmful organisms is 50% or more.
A Petri dish, half of whose bottom was covered with filter paper and which contained a germinated maize corn on a moist cotton pad, was prepared. About 50, 4-5 day-old eggs of the corn rootworm (Diabrotica undecimpunctata) were transferred onto the filter paper. Three drops of 200 μl of an aqueous solution of the formulated preparation to be examined were pipetted onto the eggs, and the rest was pipetted onto the maize corn. The Petri dish was closed and then stored at about 25° C. in a climatized chamber. After 6 days of storage, the effect of the preparation on the eggs and any larvae which may have hatched from these (mortality) was determined. The following examples were active: No. 7.

[2] = system: larvae of the root gall nematode (Meloidogyne incognita); assay: Example F: root gall nematode, contact action (part A) and soil drench action on cucumber (part B); settings: 500 ppm or less; part A 6 days exposure, part B root galls on cucumber after 2 weeks (Abbott's formula)
Protocol: as §1
Part A of the examination (contact action): in a glass vessel, an aqueous solution of the formulated preparation to be examined was added to about 5000 freshly hatched active (mobile) larvae (2nd development stage) of the root gall nematode (Meloidogyne incognita) (final volume 20 ml). After 6 days of permanent exposure of the nematode larvae, the percentage of the individual larvae immobilized by the action of the preparation was determined in comparison to the untreated controls (nematicidal contact action in percent).
Part B of the examination (soil drench action): to this end, the entire solution from part A of the examination (active compound and pre-treated nematode larvae) was poured into a pot, filled with 60 ml of soil, into which three 9-day-old cucumber plants (Cucumis sativus) had been planted. This drench application reduced the active compound content based on the soil volume to one third of the active compound content in part A of the examination. After 2 weeks in a greenhouse at about 26° C. (watering: twice a day), the root balls of the cucumber plants were carefully washed out of the soil mixture contaminated with nematodes. The number of root galls per plant was counted and compared to the infection of untreated control plants. The reduction of the infection in percent as a criterion for the assessment of the activity was calculated using Abbott's formula (nematicidal soil drench action). The following examples were active: Nos. 6, 7, 29, 32, 34, 44, 356.

[3] = system: L2 larvae of the sugar beet armyworm (Spodoptera exigua); assay: Example I: sugar beet armyworm L2 larvae on sprayed cotton leaves; settings: 500 ppm or less, after 4 days
Protocol: as §1
Cotton plants were sprayed with an aqueous solution of the formulated preparation to be examined. After drying, leaves were cut off, placed into a Petri dish and populated with 5 L2 larvae of the sugar beet armyworm (Spodoptera exigua). After 4 days of storage at about 23° C., the effect of the preparation on the larvae (mortality) was determined. The following examples were active: Nos. 27, 28, 45, 59.

[4] = system: L1 larvae of the codling moth (Carpocapsa pomonella); assay: Example J: codling moth L1 larvae on treated culture medium; settings: 500 ppm or less, after 14 days
Protocol: as §1
Culture medium was mixed with an aqueous solution of the formulated preparation to be examined and populated with 10 L1 larvae of the codling moth (Carpocapsa pomonella). After 14 days of storage at about 23° C., the effect of the preparation on the larvae (mortality) was determined. The following examples were active: Nos. 28, 59.

[5] = system: larvae of the diamondback moth (Plutella xylostella); assay: Example L: diamondback moth larvae on sprayed cabbage leaf; settings: 500 ppm or less, after 4 days
Protocol: as §1
A cabbage leaf was sprayed with an aqueous solution of the formulated preparation to be examined. After drying, the treated leaf was populated with larvae of the diamondback moth (Plutella xylostella). After 4 days of storage at about 25° C., the effect of the preparation on the larvae (mortality) was determined. The following examples were active: Nos. 27, 28, 45.

[6] = system: eggs of the American tobacco budworm (Heliothis virescens); assay: Example C: eggs of American tobacco budworm, Petri dish with culture medium; settings: 500 ppm or less; eggs dipped 5 seconds, 200 μl on culture medium; after 6 days
Protocol: as §1
A Petri dish whose bottom was covered with filter paper and which contained about 5 ml of culture medium was prepared. Pieces of filter paper with about 30, one-day-old eggs of the American tobacco budworm (Heliothis virescens) were dipped for 5 seconds into an aqueous solution of the formulated preparation to be examined and subsequently placed in a Petri dish. A further 200 μl of the aqueous solution were spread over the culture medium. The Petri dish was closed and then stored at about 25° C. in a climatized chamber. After 6 days of storage, the effect of the preparation on the eggs and any larvae which may have hatched from these (mortality) was determined. The following examples were active: Nos. 6, 27, 28, 29, 31, 35, 39, 43, 45, 59, 97, 226, 227, 228, 229, 351, 356, 357, 592, 593, 595, 949, 1001, 1126, 1129, 1132.

[7] = system: L2 larvae of the Egyptian cotton leaf worm (Spodoptera littoralis); assay: Example D: L2 larvae of Egyptian cotton leaf worm, Petri dish with culture medium; settings: 500 ppm or less, after 6 days
Protocol: as §1
A Petri dish whose bottom was covered with filter paper and which contained about 5 ml of culture medium was prepared. Five L2 larvae of the Egyptian cotton leaf worm (Spodoptera littoralis) were counted into small beakers. 200 μl of an aqueous solution of the formulated preparation to be examined were pipetted into the beaker. The treated larvae were then poured into the Petri dish, and a further 200 μl of the aqueous solution were distributed over the culture medium. The Petri dish was closed and then stored at about 25° C. in a climatized chamber. After 6 days of storage, the effect of the preparation on the larvae (mortality) was determined. The following examples were active: Nos. 27, 28, 29, 39, 43, 45, 59.

COC(=O)c1cc(OCC=C(Cl)Cl)cc(Cl)c1OCCCc1ccc(Cl)cc1 [compound 7]
active: effect of the preparation on the eggs and any larvae hatched (mortality) [1] | nematicidal contact action / nematicidal soil drench action [2]

CC(=NO)c1cc(OCC=C(Cl)Cl)cc(Cl)c1OCCCOc1ccc(C(F)(F)F)cn1 [compound 28]
active: effect of the preparation on the larvae (mortality) [3] | effect of the preparation on the larvae (mortality) [4] | effect of the preparation on the larvae (mortality) [5] | effect of the preparation on the eggs and any larvae hatched (mortality) [6] | effect of the preparation on the larvae (mortality) [7]
